The subject of data set [1] is Ovis aries. The data set is described as follows: Anthelmintic activity against Haemonchus contortus nematode in sheep was determined as a function of >/= 90% egg reduction after i.v. administration. It counts as functional.
A short description of data set [2]: Partition coefficient in n-octanol/ water system at pH= 7.0. The data set is classed as physicochemical.
Data set [3] deals with Ovis aries. The data set is described as follows: Anthelmintic activity against Haemonchus contortus nematode in sheep was determined as a function of </=50% egg reduction after p.o. administration. It counts as functional.
For data set [4], the system named is Ovis aries. Kind of data set: Anthelmintic activity against Haemonchus contortus nematode in sheep was determined as a function of >/= 90% egg reduction after p.o. administration. The data set is classed as functional.
Data set [5] deals with Ovis aries. The data set is described as follows: Anthelmintic activity against Haemonchus contortus nematode in sheep was determined as a function of </= 50% egg reduction after i.v. administration. It counts as functional.
For data set [6], the system named is Ovis aries. Kind of data set: Anthelmintic activity against Haemonchus contortus nematode in sheep was determined as a function of 75-90% egg reduction after p.o. administration. The data set is classed as functional.
Data set [7] relates to Ovis aries. Kind of data set: Anthelmintic activity against Haemonchus contortus nematode in sheep was determined as a function of 75 to >/= 90% egg reduction after p.o. administration. It counts as functional.
The subject of data set [8] is Ovis aries. The data set is described as follows: Anthelmintic activity against Haemonchus contortus nematode in sheep was determined as a function of 50-75% egg reduction after p.o. administration. It counts as functional.

The term logD denotes lipophilicity at a set pH, counting ionised and neutral species. Read a high logD as a more lipophilic compound. In the case of `CCC[C@H]1C(=O)O[C@H](Cc2ccccc2)C(=O)N(C)[C@@H](CC(C)C)C(=O)O[C@H](C)C(=O)N(C)[C@@H](CC(C)C)C(=O)O[C@H](Cc2ccccc2)C(=O)N(C)[C@@H](CCC)C(=O)O[C@@H](C)C(=O)N1C`, the figures for the Activity in the data set on Ovis aries [1] and with Ovis aries [3] were 0.5 and 0.1, respectively. In data set [2], this molecule had a logD of 5.5.

For `CC(C)C[C@H]1C(=O)O[C@H](Cc2ccccc2)C(=O)N(C)[C@@H](CC(C)C)C(=O)O[C@H](C)C(=O)N(C)[C@@H](CC(C)C)C(=O)O[C@H](Cc2ccccc2)C(=O)N(C)[C@@H](CC(C)C)C(=O)OC(C)C(=O)N1C` (single isomer, unassigned), the Activity with Ovis aries [1] and with Ovis aries [4] was 0.1 each time. For the same molecule, the logD in data set [2] is 5.9.

In data set [2], `CC(C)C[C@H]1C(=O)O[C@H](Cc2ccccc2)C(=O)N(C)[C@@H](C)C(=O)O[C@@H](C)C(=O)N(C)[C@@H](C)C(=O)O[C@H](Cc2ccccc2)C(=O)N(C)[C@@H](CC(C)C)C(=O)O[C@H](C)C(=O)N1C` displayed a logD of 4.6. Besides, in the data set with Ovis aries [5], the Activity is listed as 0.5.

As to `CCC[C@H]1C(=O)O[C@H](Cc2ccccc2)C(=O)N(C)[C@@H](CCC)C(=O)O[C@H](C)C(=O)N(C)[C@@H](CCC)C(=O)O[C@H](Cc2ccccc2)C(=O)N(C)[C@@H](CCC)C(=O)O[C@@H](C)C(=O)N1C`, the logD in data set [2] is 5.1. Moreover, in the data set on Ovis aries [5], the Activity is 0.5.

In turn, `CC(C)C[C@H]1C(=O)O[C@H](Cc2ccccc2)C(=O)N(C(C)C)[C@@H](CC(C)C)C(=O)O[C@H](C)C(=O)N(C(C)C)[C@@H](CC(C)C)C(=O)O[C@H](Cc2ccccc2)C(=O)N(C(C)C)[C@@H](CC(C)C)C(=O)O[C@@H](C)C(=O)N1C(C)C` had an Activity in the data set on Ovis aries [6] of 1. The logD in data set [2] turned out to be 8.6.

As for `C[C@@H]1OC(=O)[C@H](Cc2ccccc2)N(C)C(=O)[C@@H](Cc2ccccc2)OC(=O)[C@H](Cc2ccccc2)N(C)C(=O)[C@@H](C)OC(=O)[C@H](Cc2ccccc2)N(C)C(=O)[C@@H](Cc2ccccc2)OC(=O)[C@H](Cc2ccccc2)N(C)C1=O`, in data set [2], the pH-dependent lipophilicity (logD) came out at 5.9. The Activity in the data set on Ovis aries [5] is 5.

In the case of `CCN1C(=O)[C@H](C)OC(=O)[C@H](CC(C)C)N(CC)C(=O)[C@@H](Cc2ccccc2)OC(=O)[C@H](CC(C)C)N(CC)C(=O)[C@@H](C)OC(=O)[C@H](CC(C)C)N(CC)C(=O)[C@@H](Cc2ccccc2)OC(=O)[C@@H]1CC(C)C`, the logD in data set [2] is 7.2. The molecule further registered an Activity with Ovis aries [7] of 0.25.

As for `CCCN1C(=O)[C@H](C)OC(=O)[C@H](CC(C)C)N(CCC)C(=O)[C@@H](Cc2ccccc2)OC(=O)[C@H](CC(C)C)N(CCC)C(=O)[C@@H](C)OC(=O)[C@H](CC(C)C)N(CCC)C(=O)[C@@H](Cc2ccccc2)OC(=O)[C@@H]1CC(C)C`, in the data set on Ovis aries [8], the Activity was 0.25. Besides, in data set [2], the logD was 8.4.

As to `CCC(C)[C@H]1C(=O)O[C@H](Cc2ccccc2)C(=O)N(C)[C@@H](C(C)CC)C(=O)O[C@H](C)C(=O)N(C)[C@@H](C(C)CC)C(=O)O[C@H](Cc2ccccc2)C(=O)N(C)[C@@H](C(C)CC)C(=O)O[C@@H](C)C(=O)N1C` (stereo partly specified), the figures for the Activity with Ovis aries [1] and in the data set with Ovis aries [3] were 1 and 5, respectively. Besides, the logD in data set [2] came out at 6.6.

Turning to `CC(C)[C@H]1C(=O)O[C@H](Cc2ccccc2)C(=O)N(C)[C@@H](C(C)C)C(=O)O[C@H](C)C(=O)N(C)[C@@H](C(C)C)C(=O)O[C@H](Cc2ccccc2)C(=O)N(C)[C@@H](C(C)C)C(=O)O[C@@H](C)C(=O)N1C`, the results for the Activity in the data set with Ovis aries [1] and in the data set with Ovis aries [8] were 1 and 0.25, respectively. Also, the logD in data set [2] was 5.5.

`C[C@@H]1OC(=O)[C@H](C)N(C)C(=O)[C@@H](Cc2ccccc2)OC(=O)[C@H](C)N(C)C(=O)[C@@H](C)OC(=O)[C@H](C)N(C)C(=O)[C@@H](Cc2ccccc2)OC(=O)[C@H](C)N(C)C1=O` showed a logD in data set [2] of 3.1. The Activity with Ovis aries [5] was determined as 0.5.
